{"source": "paper PMC9688798", "about": "“Dual-Wavelength Fluorescence Polarization Immunoassay for Simultaneous Detection of Sulfonamides and Antibacterial Synergists in Milk” (Biosensors, 2022)", "key": {"[1]": {"tested_on": "mAb 10E6", "test": "FPIA tracer-antibody binding, antibody dilution and SMZ competition with mAb 10E6", "conditions": "λex/λem 480/535 nm, working concentration", "protocol": "For single format FPIA, 70 μL/well of a standard analyte solution, 70 μL/well of tracer, and 70 μL/well mAb were added to the 96-well low-adsorption microplate. After incubation for 2 min in the dark, FP values were measured at λex 480 nm and λem 535 nm for the SAs tracers (SADMPM-EDF, SADMPM-BDF, and SADMPM-HDF) or at λex 620 nm and λem 688 nm for the ASGs tracers (HaptenA-DSCA, HaptenA-DSCH, and HaptenA-AF647). For DWFPIA detection, 70 μL/well standard cocktail solutions were mixed with 70 μL/well of tracer cocktail solutions in the working dilution and 70 μL/well of mAb cocktail solutions in the working dilution. […]\nIn DWFPIA, we mainly focused on three analytical parameters to select the optimum antibody–tracer pairs, including the half-maximal inhibitory concentration (IC50), the detection window (δmP = mPmax − mPmin), and the titer of the mAbs. […] The IC50 of DWFPIA based on the antibody–tracer pairs was assessed according to standard curves, as described in Section 2.3.3. δmP was the difference between the observed maximum FP value of the tracer bound to a saturating amount of antibody (mPmax) and the observed minimum FP value of the free tracer (mPmin). […] In addition, the binding abilities of the tracers and mAbs were assessed. […] According to the antibody dilution curve, the titer of the mAbs utilized for each tracer that satisfied the δmP criterion was calculated. […]"}, "[2]": {"tested_on": "cocktail mAbs of 10E6 and 9C9", "test": "Nonspecific binding analysis with cocktail mAbs", "conditions": "λex/λem 480/535 nm, working concentration", "protocol": "The detection system of DWFPIA consists of two distinct fluorescence signals; moreover, the interference between the short-wavelength fluorescein (EDF/BDF/HDF) and the long-wavelength fluorescein (DSCA/DSCH/AF647) could be ignored, according to our previous studies. Furthermore, the nonspecific binding was analyzed by comparing the FP changes of each tracer (or the tracer cocktail) upon the addition of the free, specific, non-specific, and cocktail mAbs at working concentrations. […] At 620 nm/688 nm, the binding of the tracer HaptenA-DSCA and its corresponding antibody mAb 9C9 was not affected by the presence of non-specific mAb 10E6, as shown in Figure 3A."}, "[3]": {"tested_on": "mAb 10E6", "test": "DWFPIA for SAs (tracer SADMPM-HDF, λex 480 nm/λem 535 nm)", "format": "binding", "conditions": "for IC50: 480 nm/535 nm", "protocol": "(§1) For single format FPIA, 70 μL/well of a standard analyte solution, 70 μL/well of tracer, and 70 μL/well mAb were added to the 96-well low-adsorption microplate. After incubation for 2 min in the dark, FP values were measured at λex 480 nm and λem 535 nm for the SAs tracers (SADMPM-EDF, SADMPM-BDF, and SADMPM-HDF) or at λex 620 nm and λem 688 nm for the ASGs tracers (HaptenA-DSCA, HaptenA-DSCH, and HaptenA-AF647). For DWFPIA detection, 70 μL/well standard cocktail solutions were mixed with 70 μL/well of tracer cocktail solutions in the working dilution and 70 μL/well of mAb cocktail solutions in the working dilution. After incubation for 2 min in the dark, the corresponding signals of the tracers were collected simultaneously.\n(§2) The procedure to develop the standard curves of DWFPIA for the simultaneous detection of SMZ and TMP was follows: the standard cocktail solutions were prepared by mixing an equal quantity of the standard of SMZ and TMP. Subsequently, the optimum two tracers for each mAbs were added with equal volumes, and then mixed with the two mAbs against SMZ and TMP. The other steps followed the above protocol for FPIA. […] Y = (A − D)/[1 + (X/C) ^B] + D(1) where Y represents the FP value for the corresponding different concentrations of the standard (analyte); A and D represent the asymptotic maximum and minimum of the FP values, respectively; and B is the slope of the curve at the inflection point. C is the IC50 value that defines the standard concentration of SMZ or TMP (analyte) at 50% tracer binding, and X is SMZ/TMP in various concentrations. Furthermore, IC20–IC80 was calculated as the detectable range of the DWFPIA. According to the following equation, the cross reactivity (CR) of the DWFPIA was acquired as follows:CR= (IC50 of SMZ or TMP)/(IC50 of analyte compound) × 100%(2)\n(§3) To obtain a sensitive FPIA, the effects of some physicochemical conditions on DWFPIA were evaluated by comparing the δmP/IC50 ratios under various conditions, including pH and organic solvents. Based on the optimal antibody–tracer pairs, pH values of 6.0, 7.0, 8.0, and 9.0 were tested and the other parameters of the assay remain unchanged. To clarify the effects of organic solvents on the development of DWFPIA, various concentrations of methanol and acetonitrile were tested, that is, 0%, 2.5%, 5%, 10%, 20%, and 30% (v/v) for methanol and 0%, 2.5%, 5%, 10%, and 20% (v/v) for acetonitrile. SMZ and TMP were used as the reference analyte in DWFPIA optimization to construct standard curves, seperately."}, "[4]": {"tested_on": "mAb 9C9", "test": "DWFPIA for ASGs (tracer HaptenA-DSCA, λex 620 nm/λem 688 nm)", "format": "binding", "protocol": "as §1, §2, §3"}, "[5]": {"conditions": "final concentration of 10% acetonitrile"}}}
{"smiles": "Cc1nc(NS(=O)(=O)c2ccc(N)cc2)nc(C)c1CCCCC(=O)NCCCCCCNC(=S)Nc1ccc2c(c1)C(=O)OC21c2ccc(O)cc2Oc2cc(O)ccc21", "note": "[SADMPM-HDF]", "values": [{"measurement": "Fluorescence Polarization, tracer and mAb 10E6", "setting": "[1]", "result": 178.6, "unit": "mP"}, {"measurement": "Fluorescence Polarization, tracer and cocktail mAbs", "setting": "[2]", "result": 178.8, "unit": "mP"}]}
{"smiles": "Cc1cc(C)nc(NS(=O)(=O)c2ccc(N)cc2)n1", "note": "[SMZ, Sulfamethazine]", "values": [{"measurement": "δmP", "setting": "[3]; 10% final acetonitrile concentration", "result": "< 80", "unit": "mP"}, {"measurement": "IC50", "setting": "[3]; analyte in mixed format (standard cocktail)", "result": 4.67, "unit": "ng/mL"}, {"measurement": "IC50", "setting": "[3]; analyte in single format, tracer and mAb cocktail", "result": 4.55, "unit": "ng/mL"}, {"measurement": "CRs", "setting": "[3]; cross reactivity = IC50 of SMZ / IC50 of analyte × 100%", "result": 100, "unit": "%"}]}
{"smiles": "COc1cc(Cc2cnc(N)nc2N)cc(OC)c1OC", "note": "[TMP, Trimethoprim]", "values": [{"measurement": "IC50", "setting": "[4]; analyte in mixed format (standard cocktail), 620 nm/688 nm", "result": 1.12, "unit": "ng/mL"}, {"measurement": "IC50", "setting": "[4]; analyte in single format, tracer and mAb cocktail, 620 nm/688 nm", "result": 1.06, "unit": "ng/mL"}, {"measurement": "CRs", "setting": "[4]; cross reactivity = IC50 of TMP / IC50 of analyte × 100%", "result": 100, "unit": "%"}, {"measurement": "IC50", "setting": "[4]; [5]", "result": 1.7, "unit": "ng/mL"}, {"measurement": "δmP", "setting": "[4]; [5]", "result": "greater than 80 mP"}, {"measurement": "IC50", "setting": "[4]; without acetonitrile (start of the change)", "result": 1.1, "unit": "ng/mL"}]}
